Data set [1] in a line: Photophysical measurement. The format is physicochemical. To be noted: for Quantum yield: reference [Ru(bpy)3][PF6]2 in degassed acetonitrile. The procedure:
Emission spectra and lifetime measurements for complexes were performed on a PTI TimeMaster C720 Spectrometer (Nitrogen laser: pulse output 337 nm) fitted with a 380 nm filter. Error limits were estimated: λ (±1 nm); τ (±10%); φ (±10%). All solvents used for the lifetime measurements were degassed using three cycles of freeze-vac-thaw.
Luminescence quantum yields were determined using the method of Demas and Crosby [Ru(bpy)3][PF6]2 in degassed acetonitrile as a standard reference solution (Φr=0.062) and calculated according to the following equation:
Φs=Φr(Br/Bs)(ns/nr)^2(Ds/Dr) • where the subscripts s and r refer to sample and reference standard solution respectively, n is the refractive index of the solvents, D is the integrated intensity, and Φ is the luminescence quantum yield. The quantity B was calculated by B=1−10^−AL, where A is the absorbance at the excitation wavelength and L is the optical path length.

Another data set concerns the target T1, HCV NS3 helicase (Hepatitis C virus genotype 1a, UniProt P27958).
T1 construct: upon the addition of 0.8 μM HCV NS3 helicase; purchased Prospec Inc. (Ness-Ziona, Israel)
Kind of data set: G-quadruplex-based luminescent HCV NS3 helicase activity assay. Particulars: for inhibitory activity towards HCV NS3 helicase: 10 μM inhibitor, 0.8 μM helicase. Type of data set: biochemical. The protocol:
The random-coil oligonucleotides ON1 (100 μM) and ON2 (100 μM) were incubated in Tris buffer (20 mM, pH 7.0). The solution was heated at a temperature of 72-98° C., in particular 95° C., for at least 30 seconds in particular 10 min, cooled to room temperature at 0.1° C./s, and further incubated at room temperature for 1 hour to ensure formation of the duplex substrate. The annealed product was stored at −20° C. before use. For assaying enzyme activity, 50 μL of Tris buffered solution (5 mM Tris-HCl, 5 mM NaCl, 1 mM MgCl2, 1 mM ATP, 0.1 mM DTT, pH 7.9) with the indicated concentrations of helicase or S1, Endo, DpnI, ExoI, EcoRI, RNase, DNase, and SSB were added to a solution containing the duplex substrate (0.25 μM). The mixture was heated to 37° C. for at least 30 minutes, e.g. 2 hours, to allow the indicated enzymes-catalyzed unwinding of the duplex substrate to take place. The duplex unwinding reaction was quenched by the addition of EDTA at a final concentration of 20 mM, and the mixture was subsequently diluted using Tris buffer (20 mM Tris, 20 mM KCl, 150 mM NH4Ac, pH 7.2) to a final volume of 500 μL. […] Emission spectra were recorded in the 500-720 nm range using an excitation wavelength of 360 nm.
For the detection of helicase activity in cell extract, 50 μL of Tris buffered solution (5 mM Tris-HCl, 5 mM NaCl, 1 mM MgCl2, 1 mM ATP, 0.1 mM DTT, pH 7.9) and the indicated concentrations of helicase were added to a solution containing the duplex substrate (0.25 μM) and cell extract. The mixture was heated to 37° C. for at least 30 minutes, e.g. 2 hours, to allow the helicase-catalyzed unwinding of the duplex substrate to take place. The duplex unwinding reaction was quenched by the addition of EDTA at a final concentration of 20 mM, and the mixture was subsequently diluted using Tris buffer (20 mM Tris, 20 mM KCl, 150 mM NH4Ac, pH 7.2) to a final volume of 500 μL. Finally, 1 μM of complex 9 was added to the mixture. Emission spectra were recorded in the 500-720 nm range using an excitation wavelength of 360 nm.

The subject of another data set is PS2.M G-quadruplex DNA. Kind of data set: Luminescence response of Ir(III) complexes towards different forms of DNA. Particulars: complex 1 μM, DNA 5 μM; PS2.M G-quadruplex vs ds17 and CCR5-DEL. Type of data set: binding. From the text: M G-quadruplex DNA (G4) over dsDNA (ds17) and ssDNA (CCRS-DEL), in particular IG4/IdsDNA refers to the ratio of the luminescent response of PS2. M G-quadruplex DNA over dsDNA (ds17); and IG4/IssDNA refers to the ratio of the luminescent response of PS2. M G-quadruplex DNA over ssDNA(CCR5-DEL).
M G-quadruplex DNA over dsDNA (ds17) and ssDNA (CCRS-DEL), in particular IG4/IdsDNA refers to the ratio of the luminescent response of PS2. M G-quadruplex DNA over dsDNA (ds17); and IG4/IssDNA refers to the ratio of the luminescent response of PS2. M G-quadruplex DNA over ssDNA(CCR5-DEL).
The G-quadruplex DNA-forming sequence (PS2. M) was annealed in Tris-HCl buffer (20 mM Tris, 100 mM KCl, pH 7.0) and were stored at −20° C. or less than −20° C. before use. Complex 1-17 (1 μM) was added to 5 μM of ssDNA, dsDNA or PS2. M G-quadruplex DNA in Tris-HCl buffer (20 mM Tris, pH 7.0).

The next data set has as its target T2, helicase (Hepatitis C virus genotype 1a, UniProt P27958).
T2 construct: upon the addition of 0.8 μM HCV NS3 helicase; purchased Prospec Inc. (Ness-Ziona, Israel)
Kind of data set: Luminescence response of complexes towards helicase alone. Particulars: helicase alone, no DNA. The source says: M G-quadruplex DNA over helicase, IG4/Ihelicase refers to the ratio of the lunminscent response of PS2. M G-quadruplex DNA over helicase.

From patent US20170145472A1, “METHOD OF DETECTING HELICASE ACTIVITY” (University of Macau, priority 2015, published 2017) come the findings set out here.

T2 sequence (P27958 1027-1657): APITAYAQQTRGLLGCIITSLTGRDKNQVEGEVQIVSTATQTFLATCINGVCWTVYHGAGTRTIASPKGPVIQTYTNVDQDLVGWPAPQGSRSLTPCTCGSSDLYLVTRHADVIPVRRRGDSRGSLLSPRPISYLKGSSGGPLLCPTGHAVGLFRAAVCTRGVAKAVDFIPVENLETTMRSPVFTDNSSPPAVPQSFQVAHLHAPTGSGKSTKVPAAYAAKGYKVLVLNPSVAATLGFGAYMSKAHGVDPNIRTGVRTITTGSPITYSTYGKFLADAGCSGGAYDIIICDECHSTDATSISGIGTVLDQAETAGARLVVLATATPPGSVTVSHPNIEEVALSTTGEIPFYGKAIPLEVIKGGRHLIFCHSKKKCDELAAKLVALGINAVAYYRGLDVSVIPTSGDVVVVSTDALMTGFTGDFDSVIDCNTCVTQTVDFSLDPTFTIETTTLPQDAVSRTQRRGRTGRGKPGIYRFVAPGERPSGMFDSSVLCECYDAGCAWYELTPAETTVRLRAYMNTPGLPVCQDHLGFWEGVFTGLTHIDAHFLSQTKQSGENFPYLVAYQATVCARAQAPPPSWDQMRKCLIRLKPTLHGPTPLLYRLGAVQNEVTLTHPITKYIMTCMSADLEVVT
T1 sequence (P27958 1027-1657): as above

In data set [1], `Clc1cc[n+]2c3c1ccc1c(Cl)cc[n+](c13)[Ir-3]213([c]2ccccc2-c2ccc4ccccc4[n+]21)[c]1ccccc1-c1ccc2ccccc2[n+]13.F[P-](F)(F)(F)(F)F` [Complex 10] showed a Lifetime of 2.89 μs, a λem of 590 nm and a Quantum yield of 0.086.
For the compound `O=C(O)c1cn(C2CC2)c2cc(N3CCNCC3)c(F)cc2c1=O` [ciprofloxacin, reference compound], the “decrease of luminescence signal of the system” value at HCV NS3 helicase (10 μM of ciprofloxacin) is reported as “about 40%”. On HCV NS3 helicase (ciprofloxacin 0, 1, 2.5, 5, 10, 20 μM), the “luminescence signal of the system in the presence of inhibitor” value is on record as “diminished in the presence of ciprofloxacin in a dose-dependent manner”.
Regarding `Cc1cc(-c2ccccc2)c2ccc3c(-c4ccccc4)cc(C)[n+]4c3c2[n+]1[Ir-3]412([c]3ccccc3-c3ccc4ccccc4[n+]31)[c]1ccccc1-c1ccc3ccccc3[n+]12.F[P-](F)(F)(F)(F)F` [Complex 12], in data set [1], the Lifetime is recorded as 1.84 μs, the λem is listed as 575 nm and the Quantum yield stood at 0.063.
As for `Cc1cccc2[n+]1[Ir-3]13([c]4ccccc4-2)([c]2ccccc2-c2cccc(C)[n+]21)[n+]1ccc(-c2ccccc2)c2ccc4c(-c5ccccc5)cc[n+]3c4c21.F[P-](F)(F)(F)(F)F` [Complex 5], the “selectivity of luminescence response for G-quadruplex DNA over dsDNA and ssDNA” value (“selectivity of luminescence response” for short) in the data set with PS2.M G-quadruplex DNA is on record as “non-selective for G-quadruplex DNA”. In data set [1], this compound registered a Lifetime of 1.23 μs, a λem of 590 nm and a Quantum yield of 0.12.
Consider `Clc1cc2cccnc2c2ncccc12.F[P-](F)(F)(F)(F)F.[Ir+3].[c-]1ccccc1-c1ccccn1.[c-]1ccccc1-c1ccccn1` [Complex 17], for which, in data set [1], the Lifetime is 2.87 μs, the λem stood at 608 nm and the Quantum yield came to 0.078.
For the compound “single-stranded DNA binding protein: single-stranded DNA binding protein (SSB) purchased from New England Biolabs”, the “response of the complex 9+G-quadruplex DNA system to other enzymes or proteins (emission intensity)” value in the data set with HCV NS3 helicase (selectivity test, enzyme in place of helicase) is recorded as “relatively low emission enhancement”.
Take `F[P-](F)(F)(F)(F)F.c1ccc(-c2ccc3ccc4ccc(-c5ccccc5)[n+]5c4c3[n+]2[Ir-3]523([c]4ccccc4-n4ccc[n+]42)[c]2ccccc2-n2ccc[n+]23)cc1` [Complex 1]: the “luminescence enhancement in the presence of helicase only” value (“luminescence enhancement” for short) on helicase is reported as “enhanced in the presence of helicase only”. Besides, in data set [1], the Lifetime is reported as 3.29 μs, the λem was 629 nm and the Quantum yield is given as 0.13.
On to `Cc1c(C)c2cccnc2c2ncccc12.Cc1c[c-]c(-c2ccccn2)cc1.Cc1c[c-]c(-c2ccccn2)cc1.F[P-](F)(F)(F)(F)F.[Ir+3]` [Complex 2], for which the “luminescence enhancement” value at helicase is recorded as “enhanced in the presence of helicase only”. In data set [1], this compound showed a Lifetime of 0.74 μs, a λem of 577 nm and a Quantum yield of 0.057.
In data set [1], `F[P-](F)(F)(F)(F)F.c1cc[c]2c(c1)-c1ccc3ccccc3[n+]1[Ir-3]213([c]2ccccc2-c2ccc4ccccc4[n+]21)[n+]1cccc2c4nccnc4c4ccc[n+]3c4c21` [Complex 13] returned a Lifetime of 4.61 μs, a λem of 568 nm and a Quantum yield of 0.067.
In data set [1], `Cc1ccc2ccc3ccc(C)[n+]4c3c2[n+]1[Ir-3]412([c]3ccccc3-c3ccc4ccccc4[n+]31)[c]1ccccc1-c1ccc3ccccc3[n+]12.F[P-](F)(F)(F)(F)F` [Complex 11] yielded a Lifetime of 1.96 μs, a λem of 570 nm and a Quantum yield of 0.087.
As to `Brc1c(Br)c(Br)c2n[nH]nc2c1Br` [TBBT, reference compound], the “inhibitory activity towards HCV NS3 helicase” value at HCV NS3 helicase is recorded as “displayed inhibitory activity”.
In data set [1], `Clc1cc2ccc[n+]3c2c2c1ccc[n+]2[Ir-3]312([c]3ccccc3-c3[nH]c4ccccc4[n+]31)[c]1ccccc1-c1[nH]c3ccccc3[n+]12.F[P-](F)(F)(F)(F)F` [Complex 15] showed a Lifetime of 2.71 μs, a λem of 620 nm and a Quantum yield of 0.092.
Consider `Clc1cc2cccnc2c2ncccc12.F[P-](F)(F)(F)(F)F.[Ir+3].[c-]1ccccc1-c1ccc2ccccc2n1.[c-]1ccccc1-c1ccc2ccccc2n1` [Complex 7], for which the “selectivity of luminescence response” value in the data set on PS2.M G-quadruplex DNA was “selective response for G-quadruplex DNA”. Moreover, at helicase, the “luminescence enhancement” value is “not showing any luminescence enhancement towards helicase”. In data set [1], this compound came in with a Lifetime of 1.34 μs, a λem of 571 nm and a Quantum yield of 0.056.
`F[P-](F)(F)(F)(F)F.[Ir+3].[c-]1ccccc1-c1ncco1.[c-]1ccccc1-c1ncco1.c1ccc(-c2ccccn2)nc1` [Complex 6]: the “selectivity of luminescence response” value in the data set on PS2.M G-quadruplex DNA was “non-selective for G-quadruplex DNA”. In data set [1], the Lifetime amounted to 0.28 μs, the λem worked out at 580 nm and the Quantum yield worked out at 0.089.
Take `Cc1ccc(C(=O)Nc2ccc(S(=O)(=O)O)c3cc(S(=O)(=O)O)cc(S(=O)(=O)O)c23)cc1NC(=O)c1cccc(NC(=O)Nc2cccc(C(=O)Nc3cc(C(=O)Nc4ccc(S(=O)(=O)O)c5cc(S(=O)(=O)O)cc(S(=O)(=O)O)c45)ccc3C)c2)c1` [suramin, reference compound]: at HCV NS3 helicase, the “inhibitory activity towards HCV NS3 helicase” value is given as “displayed inhibitory activity”.
Consider `F[P-](F)(F)(F)(F)F.c1ccc(-c2cc[n+]3c(c2)-c2cc(-c4ccccc4)cc[n+]2[Ir-3]324([c]3ccccc3-c3ccc5ccccc5[n+]32)[c]2ccccc2-c2ccc3ccccc3[n+]24)cc1` [Complex 14], for which, in data set [1], the Lifetime turned out to be 4.586 μs, the λem turned out to be 560 nm and the Quantum yield is on record as 0.15.
